Results taken from patent publication US11753410B2, “Hormone receptor modulators for treating metabolic mutagenic and fibrotic conditions and disorders” (priority 2017, dated 2023).

Experiments:
[1] = molecular target: T1, human Farnesoid X receptor ligand-binding domain/Gal4 DNA binding domain chimera (Homo sapiens, UniProt Q96RI1); experiment: Cell-based assay of FXR activation (FXR-UAS-bla HEK 293T beta-lactamase reporter); conditions: for Emax: HEK-293T, read-out: Cellular % Efficacy
T1 construct: host or cells: FXR-UAS-bla HEK 293T (CellSensor UAS-bla HEK 293T)
T1 sequence (Q96RI1 262-486 limits assumed): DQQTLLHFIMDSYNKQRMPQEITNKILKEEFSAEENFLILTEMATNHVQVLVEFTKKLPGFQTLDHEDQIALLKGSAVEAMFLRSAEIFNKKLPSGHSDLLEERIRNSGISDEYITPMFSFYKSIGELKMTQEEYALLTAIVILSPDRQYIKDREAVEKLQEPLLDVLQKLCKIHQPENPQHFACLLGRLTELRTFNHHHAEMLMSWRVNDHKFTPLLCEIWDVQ
Protocol: FXR activation was measured using a cell line and procedure obtained from Life Technologies (Cat #K1691). […] Activation of FXR by bound ligands results in transcriptional activation of the beta-lactamase reporter gene, which is detected via assay of beta-lactamase activity.
Cells are harvested and diluted into assay medium containing phenol red-free DMEM supplemented with 2% Charcoal-stripped FBS, pyruvate, non-essential amino acids. Cells are then transferred to a 384 well assay plate. Test compounds are dissolved in DMSO and a 3-fold serial dilution series is generated, then further diluted into assay medium. Compounds in assay medium are added to cells in the 384 well plate and allowed to incubate 16 h at 37 C in the presence of 5% CO2.
A FRET-based […] (CCF4) is loaded into cells as its acetomethoxy ester. Intracellular esterases liberate free CCF4, a cephalosporin core linking 7-hydroxycoumarin to fluorescein. In the presence of beta-lactamase activity produced in the presence of FXR agonists, cleavage of CCF4 spatially separates the two dyes and disrupts FRET, so that exciting the coumarin at 409 nm now produces a blue fluorescence signal at 447 nm. The change in FRET signal is plotted against the test compound concentration and fit to a 3-parameter logistical equation.

[2] = molecular target: T2, ligand binding domain of human FXR (Homo sapiens, UniProt Q96RI1); experiment: biochemical; conditions: for Emax: extent of activation relative to GW4064, read-out: Ligand Binding % Efficacy; for EC50: −log EC50, concentration required to produce 50% activation, FRET 520 nm/495 nm, 1 hour at room temperature, read-out: Ligand Binding pEC50 (converted)
T2 construct: purchased Thermofisher (LanthaScreen) PV4833
T2 sequence (Q96RI1 262-486 limits assumed): T1 sequence (Q96RI1 262-486 limits assumed)
Protocol: The affinity of FXR ligands for the ligand binding domain of FXR was determined using a commercially available human FXR ligand binding assay (LanthaScreen, Thermofisher Cat #PV4833). […] Binding of FXR ligands to the FXR ligand binding domain promotes binding of the fluorescein-labelled SRC2-2 peptide. This causes a FRET signal between the terbium-labelled anti-GST antibody and the fluorescein-labelled SRC peptide which are both bound to the FXR ligand binding domain.
Test compounds are dissolved in DMSO and a 3-fold serial dilution series is generated, then further diluted into assay buffer. The compounds are mixed with 5 nM GST-tagged FXR ligand binding domain, 5 nM Tb-labelled anti-GST antibody and 500 nM fluorescein-labelled SRC2-2 peptide in a pH7.4 buffer. The reaction is incubated at room temperature for 1 hour, then the FRET signal is measured as the ratio of the 520 nm/495 nm emission following excitation at 340 nm. The change in FRET signal is plotted against the test article concentration and fit to a 3-parameter logistical equation.

SMILES	EC50 [1] [nM]	Emax [1] [%]	Emax [2] [%]	EC50 [2] [nM]
O=C(O)c1cc([C@@H]2CCOC2)c2nc(N3C[C@@H]4C[C@H]3C[C@H]4OCc3c(-c4c(Cl)cccc4Cl)cnn3C3CC3)sc2c1 (single isomer, unassigned) [Compound I-50]	100	100	78	100
O=C(O)c1cc([C@H]2CCOC2)c2nc(N3C[C@@H]4C[C@H]3C[C@H]4OCc3c(-c4c(Cl)cccc4Cl)cnn3C3CC3)sc2c1 (single isomer, unassigned) [Compound I-51]	158	100	96	251
O=C(O)c1cc([C@H]2CCOC2)c2nc(N3C[C@@H]4C[C@H]3C[C@H]4OCc3c(C4CC4)nnn3-c3c(Cl)cccc3Cl)sc2c1 (single isomer, unassigned) [Compound I-58]	1	102	145	2
O=C(O)c1cc([C@@H]2CCOC2)c2nc(N3C[C@@H]4C[C@H]3C[C@H]4OCc3c(C4CC4)nnn3-c3c(Cl)cccc3Cl)sc2c1 (single isomer, unassigned) [Compound I-59]	2.51	100	137	1.58
O=C(O)c1cc([C@H]2CCOC2)c2nc(N3C[C@@H]4C[C@H]3C[C@H]4OCc3c(-c4c(Cl)cccc4Cl)nnn3C3CC3)sc2c1 (single isomer, unassigned) [Compound I-65]	10	108	136	25.1
O=C(O)c1cc([C@@H]2CCOC2)c2nc(N3C[C@@H]4C[C@H]3C[C@H]4OCc3c(-c4c(Cl)cccc4Cl)nnn3C3CC3)sc2c1 (single isomer, unassigned) [Compound I-66]	15.8	110	140	15.8
O=C(O)c1ccc(N2C[C@@H]3C[C@H]2C[C@H]3OCc2c(C3CC3)cnn2-c2c(Cl)cccc2Cl)cc1 [Compound I-1, 4-[(1S,4S,5R)-5-{[4-cyclopropyl-1-(2,6-dichlorophenyl)-1H-pyrazol-5-yl]methoxy}-2-azabicyclo[2.2.1]heptan-2-yl]benzoic acid]	1.58	110	121	6.31
O=C(O)c1ccc(N2C[C@@H]3C[C@H]2C[C@H]3OCc2c(C3CC3)cnn2-c2c(Cl)cccc2Cl)cc1F [Compound I-2, 4-[(1S,4S,5R)-5-{[4-cyclopropyl-1-(2,6-dichlorophenyl)-1H-pyrazol-5-yl]methoxy}-2-azabicyclo[2.2.1]heptan-2-yl]-2-fluorobenzoic acid]	2	104	133	5.01
O=C(O)c1ccc(N2C[C@@H]3C[C@H]2C[C@H]3OCc2c(C3CC3)cnn2-c2c(F)cccc2F)cc1F [Compound I-10, 4-[(1S,4S,5R)-5-{[4-cyclopropyl-1-(2,6-difluorophenyl)-1H-pyrazol-5-yl]methoxy}-2-azabicyclo[2.2.1]heptan-2-yl]-2-fluorobenzoic acid]	31.6	118	164	158
O=C(NS(=O)(=O)C1CCOCC1)c1ccc(N2C[C@@H]3C[C@H]2C[C@H]3OCc2c(C3CC3)cnn2-c2c(Cl)cccc2Cl)cc1 [Compound I-20, 4-[(1S,4S,5R)-5-{[4-cyclopropyl-1-(2,6-dichlorophenyl)-1H-pyrazol-5-yl]methoxy}-2-azabicyclo[2.2.1]heptan-2-yl]-N-(oxane-4-sulfonyl)benzamide]	0.794	102	147	3.16
O=C(NS(=O)(=O)C1CCOC1)c1ccc(N2C[C@@H]3C[C@H]2C[C@H]3OCc2c(C3CC3)cnn2-c2c(Cl)cccc2Cl)cc1 (stereo partly drawn) [Compound I-23, 4-((1S,4S,5R)-5-((4-cyclopropyl-1-(2,6-dichlorophenyl)-1H-pyrazol-5-yl)methoxy)-2-azabicyclo[2.2.1]heptan-2-yl)-N-((tetrahydrofuran-3-yl)sulfonyl)benzamide]	2.51	111	164	3.98
O=C(NS(=O)(=O)CC1CCOC1)c1ccc(N2C[C@@H]3C[C@H]2C[C@H]3OCc2c(C3CC3)cnn2-c2c(Cl)cccc2Cl)cc1 (stereo partly drawn) [Compound I-24, 4-((1S,4S,5R)-5-((4-cyclopropyl-1-(2,6-dichlorophenyl)-1H-pyrazol-5-yl)methoxy)-2-azabicyclo[2.2.1]heptan-2-yl)-N-(((tetrahydrofuran-3-yl)methyl)sulfonyl)benzamide]	2.51	107	164	3.16
O=C(O)c1cc(F)c2nc(N3C[C@@H]4C[C@H]3C[C@H]4OCc3c(C4CC4)cnn3-c3c(Cl)cccc3Cl)sc2c1 [Compound I-30, 2-[(1S,4S,5R)-5-{[4-cyclopropyl-1-(2,6-dichlorophenyl)-1H-pyrazol-5-yl]methoxy}-2-azabicyclo[2.2.1]heptan-2-yl]-4-fluoro-1,3-benzothiazole-6-carboxylic acid]	1.58	106	151	15.8
O=C(O)c1cc(OC2CC2)c2nc(N3C[C@@H]4C[C@H]3C[C@H]4OCc3c(C4CC4)cnn3-c3c(Cl)cccc3Cl)sc2c1 [Compound I-31, 4-cyclopropoxy-2-[(1S,4S,5R)-5-{[4-cyclopropyl-1-(2,6-dichlorophenyl)-1H-pyrazol-5-yl]methoxy}-2-azabicyclo[2.2.1]heptan-2-yl]-1,3-benzothiazole-6-carboxylic acid]	0.2	110	116	1.58
O=C(O)c1cc(C2CCOCC2)c2nc(N3C[C@@H]4C[C@H]3C[C@H]4OCc3c(C4CC4)cnn3-c3c(Cl)cccc3Cl)sc2c1 [Compound I-32, 2-[(1S,4S,5R)-5-{[4-cyclopropyl-1-(2,6-dichlorophenyl)-1H-pyrazol-5-yl]methoxy}-2-azabicyclo[2.2.1]heptan-2-yl]-4-(oxan-4-yl)-1,3-benzothiazole-6-carboxylic acid]	1	101	128	2.51
O=C(O)CCc1ccc(N2C[C@@H]3C[C@H]2C[C@H]3OCc2c(C3CC3)cnn2-c2c(Cl)cccc2Cl)c(F)c1 [Compound I-33, 3-{4-[(1S,4S,5R)-5-{[4-cyclopropyl-1-(2,6-dichlorophenyl)-1H-pyrazol-5-yl]methoxy}-2-azabicyclo[2.2.1]heptan-2-yl]-3-fluorophenyl}propanoic acid]	3.98	99	132	39.8
O=C(O)CCc1ccc(N2C[C@@H]3C[C@H]2C[C@H]3OCc2c(C3CC3)cnn2-c2c(Cl)cccc2Cl)cc1F [Compound I-34, 3-{4-[(1S,4S,5R)-5-{[4-cyclopropyl-1-(2,6-dichlorophenyl)-1H-pyrazol-5-yl]methoxy}-2-azabicyclo[2.2.1]heptan-2-yl]-2-fluorophenyl}propanoic acid]	10	98	144	100
O=C(O)c1ccc(N2C[C@@H]3C[C@H]2C[C@H]3OCc2c(-c3c(Cl)cccc3Cl)cnn2C2CC2)cc1 [Compound I-41, 4-[(1S,4S,5R)-5-{[1-cyclopropyl-4-(2,6-dichlorophenyl)-1H-pyrazol-5-yl]methoxy}-2-azabicyclo[2.2.1]heptan-2-yl]benzoic acid]	794	117	96	316
O=C(O)c1ccc(N2C[C@@H]3C[C@H]2C[C@H]3OCc2c(-c3c(Cl)cccc3Cl)cnn2C2CC2)cc1F [Compound I-42, 4-[(1S,4S,5R)-5-{[1-cyclopropyl-4-(2,6-dichlorophenyl)-1H-pyrazol-5-yl]methoxy}-2-azabicyclo[2.2.1]heptan-2-yl]-2-fluorobenzoic acid]	398	110	102	251
